Data reported in the NIST ThermoML archive (doi:10.1021/je049691v).
Numbers after ± are expanded uncertainties.

Details: 101.33 kPa, Liquid, Vibrating tube method

| mass density (298.15 K) | mass density (297.15 K) | SMILES |
| --- | --- | --- |
| 786.58 ± 0.13 kg/m3 | – | CO [methanol] |
| – | 1012.94 ± 0.13 kg/m3 | NCCO [2-aminoethan-1-ol] |
